From US20220409617A1, “Drug Formulations and Methods of Treatment for Metabolic Disorders” (The Regents of the University of California, priority 2019, published 2022)

What was measured:
3T3-L1 adipocytes = experiment: Insulin-stimulated 2-deoxyglucose uptake; assay type: cell-based, mouse; details: 3 h, 893 10 μM, MK-2206 2 μM
Method: (§1) 3T3-L1 cells were maintained in DMEM with 10% FBS and 1% penicillin-streptomycin until induced to differentiate. 3T3-L1 pre-adipocytes were differentiated as described in (M. P. Valley, et al., Anal. Biochem. 505: 43-50, 2016, the disclosure of which is incorporated herein by reference) with slight modifications. Briefly, pre-adipocytes were grown to confluence. After 2 d, cells were induced with maintenance media containing 500 μM IBMX (15879, Sigma-Aldrich, St. Louis, Mo.), 1 μM dexamethasone (D4902, Sigma-Aldrich), 5 μg/mL bovine insulin (10516, Sigma-Aldrich), and 5 μM troglitazone (50-115-0786, ApexBio). Media was changed every 2-3 d for 7 d. On day 7 post-induction, media was changed to maintenance media+5 μg/mL bovine insulin. On day 9 post-induction, media was changed to maintenance media. Mature adipocytes were used 12-14 d post-induction for all experiments. LSL-KrasG12D mouse embryonic fibroblasts (MEFs) with and without Cre-mediated deletion of the STOP cassette were obtained from David Tuveson (Cold Spring Harbor Laboratory, Cold Spring Harbor N.Y., USA) in 2000. p53^flox/flox MEFs were derived in house (2015) from C57BL/6 mice using standard techniques and immortalized by transient expression of Cre recombinase and deletion of p53. MEFs were cultured and maintained in DMEM with 10% FBS and 1% penicillin-streptomycin. […]

AKT = experiment: Insulin-stimulated AKT activation, western blot; assay type: cell-based, mouse; details: 3T3-L1 adipocytes; 3 h pre-treatment, C2-ceramide 50 or 100 μM, 893 5 or 10 μM; insulin 100 nM 15 min
Method: as §1, with “experiments.” for “experiments. LSL-KrasG12D mouse embryonic fibroblasts (MEFs) with and without Cre-mediated deletion of the STOP cassette were obtained from David Tuveson (Cold Spring Harbor Laboratory, Cold Spring Harbor N.Y., USA) in 2000. p53^flox/flox MEFs were derived in house (2015) from C57BL/6 mice using standard techniques and immortalized by transient expression of Cre recombinase and deletion of p53. MEFs were cultured and maintained in DMEM with 10% FBS and 1% penicillin-streptomycin.”
Mature adipocytes were serum starved for 16 h then treated with vehicle, ceramide (50 or 100 μM), or sphingolipid-like compound 893 (5 or 10 μM) in serum-free media supplemented with 0.2% fatty-acid free BSA for 3 h after which 100 nM insulin was added for 15 min. […] Protein content was quantified in the supernatant using the Pierce™ BCA Protein Assay Kit (Thermo-Fisher Scientific, Waltham, Mass.). […]

DRP1 = DRP1 recruitment to mitochondria (DRP1/citrate synthase co-localization) and DRP1 western blot; assay type: cell-based, mouse; details: MEFs; 893 5 μM or YM201636 800 nM 3 h, then palmitate 250 μM 3 h
Method: Mature adipocytes were serum starved for 16 h then treated with vehicle, ceramide (50 or 100 μM), or sphingolipid-like compound 893 (5 or 10 μM) in serum-free media supplemented with 0.2% fatty-acid free BSA for 3 h after which 100 nM insulin was added for 15 min. To determine total DRP1 protein levels, 100,000 MEFs were seeded into a 6-well plate for 16 h, pre-treated for 3 h with vehicle or sphingolipid-like compound 893 (5 μM) followed by a 3 h incubation in 1% BSA+ethanol or BSA-palmitate (250 μM). Cells were washed once with cold PBS, then lysed in cold RIPA buffer (140 mM NaCl, 10 mM Tris pH 8.0, 1% Triton X-100, 0.1% SDS, 1% sodium deoxycholate) with cOmplete™ protease inhibitor (Cat no. 11697498001, Millipore Sigma, St. Louis, Mo.) and phosSTOP™ phosphatase inhibitor (Cat no. 4906837001, Millipore Sigma). Samples were incubated on ice for 10 min and insoluble material removed by centrifugation (9000×g for 10 min at 4° C.). Protein content was quantified in the supernatant using the Pierce™ BCA Protein Assay Kit (Thermo-Fisher Scientific, Waltham, Mass.). Equal amounts of protein were prepared in NuPAGE® LDS Sample Buffer (NP0007, Invitrogen) containing 50 mM DTT, and heated at 70° C. for 10 min. Proteins were resolved on a NuPAGE® 4-12% Bis-Tris protein gel (NP0336, Invitrogen, Carlsbad, Calif.) and subsequently transferred to a nitrocellulose membrane. Membranes were blocked in 5% BSA in TBST for 1 h, then probed with primary antibodies overnight at 4° C. […] Band intensity was quantified using Image Studio Lite V5.2 software (Li-COR).
MEFs were washed twice with PBS and fixed with 4% paraformaldehyde for 10 min at RT. […] NADH/NADPH autofluorescence was detected with 740 nm excitation and 450±50 nm detectors using a Mai Tai two-photon laser. Fluorescence microscopy was performed on a Zeiss LSM 780 confocal using a 63× oil objective with a […] numerical aperture (NA) or using a Nikon TE2000-S inverted epifluorescence microscope with a 100× oil objective (1.3 NA) and a Photometrics CoolSNAP ES2 monochrome CCD camera. […]

[1] = Home-cage feeding study with suboptimal leptin (leptin sensitization); assay type: in vivo, mouse; details: lean chow-fed 18 week old mice; leptin 2 mg/kg i.p. or 893 120 mg/kg by gavage
Text: Leptin is secreted by adipocytes in proportion to their triglyceride content, signaling to the CNS when peripheral energy stores are full and food consumption should decrease. In HFD-fed mice, chronic increases in adiposity lead to elevations in circulating leptin with no accompanying decrease in food intake, a state that has been termed leptin-resistant. Reducing leptin levels in the blood restores leptin signaling in the hypothalamus (S. Zhao, et al., 2019, cited supra). Thus, the sphingolipid-like compound 893 should function as a leptin-sensitizing agent. To test this model, 18 week old lean, male C57BL/6J mice were treated intraperitoneally with a suboptimal dose of recombinant leptin at ZT8.5 and food intake and body weight measured over the next 18 h. […] In summary, the reduction in food intake in sphingolipid-like compound 893-treated mice is consistent with the reversal of mitochondrial fragmentation in the hypothalamus and likely due in part to the re-sensitization of anorexigenic POMG neurons to leptin when plasma leptin levels are decreased.
Mice were singly housed and allowed to acclimate for 72 h before food intake was monitored. Food consumption was determined by monitoring the weight of food in the hopper. Initial food and body weight measurements were taken at ZT9 and final measurements were taken 16 h later to capture the active period where most consumption occurred. Home cage feeding studies were performed with C57BL/6J mice maintained on a HFD for 24 weeks (33 weeks of age), or ob/ob mice at 8 weeks of age. Mice received vehicle or 120 mg/kg sphingolipid-like compound 893 by gavage at ZT8.5. For experiments involving leptin, 18 week old, SD fed (16% kcal from fat, 2020×, Envigo) C57BL/6J mice received vehicle or 120 mg/kg sphingolipid-like compound 893 by gavage at ZT8.5. […] One ob/ob mouse died during Echo MRI for unknown reasons after 6 d of treatment with sphingolipid-like compound 893; data from this mouse was analyzed prior to death.

NC1(c2ccc(-c3nc4ccn5c(=O)[nH]nc5c4cc3-c3ccccc3)cc2)CCC1 [MK-2206, reference compound]
Insulin-stimulated glucose uptake (3T3-L1 adipocytes): impeded insulin-stimulated glucose uptake in adipocytes

CCCCCCCCCCCCC/C=C/[C@@H](O)[C@H](CO)NC(C)=O [ceramide, C2-ceramide, reference compound]
Insulin-stimulated AKT activation (AKT): interfered with insulin-stimulated AKT activation

Nc1ccc(C(=O)Nc2cccc(-c3nc(N4CCOCC4)c4oc5ncccc5c4n3)c2)cn1 [YM201636, reference compound]
DRP1 recruitment to mitochondria in response to palmitate (DRP1): prevented DRP1 recruitment

B1: leptin: recombinant mouse leptin (498-OB, R&D Systems) (protein, UniProt P41160 22-167, looked up)
Leptin: VPIQKVQDDTKTLIKTIVTRINDISHTQSVSAKQRVTGLDFIPGLHPILSLSKMDQTLAVYQQVLTSLPSQNVLQIANDLENLRDLLHLLAFSKSCSLPQTSGLQKPESLDGVLEASLYSTEVVALSRLQGSLQDILQQLDVSPEC
Food intake and body weight over 18 h, single agent [1]: not sufficient to decrease food intake or body weight
